Reference: ChEMBL document CHEMBL5143686, “Development of Azaindole-Based Frameworks as Potential Antiviral Agents and Their Future Perspectives” (J Med Chem, 2022)
In brackets after ≈: the same amount, converted by molar mass.

Key:
[1] = Solubility of the compound at pH 5.4; assay type: physicochemical; conditions: buffer
[2] = Basic dissociation constant, pKa of the compound
[3] = test system: Human immunodeficiency virus 1; assay: Antiviral activity against HIV-1 assessed as inhibition of viral growth; assay type: functional, organism-based
[4] = test system: Human immunodeficiency virus 1; assay: Antiviral activity against HIV-1 JR-CSF assessed as inhibition of viral growth; assay type: functional, organism-based; conditions: Human immunodeficiency virus 1, JR-CSF
[5] = test system: Human immunodeficiency virus 1; assay: Antiviral activity against HIV-1 LAI T-tropic (X4) infected in human MT2 cells assessed as inhibition of viral growth by ELISA; assay type: functional, organism-based; conditions: Human immunodeficiency virus 1, LAI T-tropic (X4)
[6] = test system: Human immunodeficiency virus 1; assay: Antiviral activity against HIV-1 SF-2 T-tropic (X4) infected in human MT2 cells assessed as inhibition of viral growth by ELISA; assay type: functional, organism-based; conditions: Human immunodeficiency virus 1, SF-2 T-tropic (X4)
[7] = Oral bioavailability in rat; assay type: ADME, organism-based; conditions: in vivo
[8] = test system: Human immunodeficiency virus 1; assay: Antiviral activity against HIV-1 NL4-3 T-tropic (X4) infected in human MT2 cells assessed as inhibition of viral growth by ELISA; assay type: functional, organism-based; conditions: Human immunodeficiency virus 1, NL4-3 T-tropic (X4)
[9] = Oral bioavailability in monkey; assay type: ADME, organism-based, Macaca mulatta; conditions: rhesus monkey, in vivo
[10] = test system: Human immunodeficiency virus 1; assay: Antiviral activity against HIV-1 SF-162 macrophage-tropic (R5) infected in human PM1 cells assessed as inhibition of viral growth by ELISA; assay type: functional, organism-based; conditions: Human immunodeficiency virus 1, SF-162 macrophage-tropic (R5)
[11] = test system: Human immunodeficiency virus 1; assay: Antiviral activity against HIV-1 TLAV T-tropic (X4)/macrophage-tropic (R5) infected in human MT2 cells assessed as inhibition of viral growth by ELISA; assay type: functional, organism-based; conditions: Human immunodeficiency virus 1, TLAV T-tropic (X4)/macrophage-tropic (R5)
[12] = test system: Human immunodeficiency virus 1; assay: Antiviral activity against HIV-1 Bal macrophage-tropic (R5) infected in human PM1 cells assessed as inhibition of viral growth by ELISA; assay type: functional, organism-based; conditions: Human immunodeficiency virus 1, Bal macrophage-tropic (R5)
[13] = Aqueous solubility of the compound; assay type: physicochemical
[14] = test system: Human immunodeficiency virus 1; assay: Antiviral activity against HIV-1 JRFL macrophage-tropic (R5) infected in human PM1 cells assessed as inhibition of viral growth by ELISA; assay type: functional, organism-based; conditions: Human immunodeficiency virus 1, JRFL macrophage-tropic (R5)
[15] = Oral bioavailability in dog; assay type: ADME, organism-based, Canis lupus familiaris; conditions: in vivo

SMILES: COc1cnc(OC)c2c1c(C(=O)C(=O)N1CCN(C(=O)c3ccccc3)CC1)cn2COP(=O)(O)O.NCCCC[C@H](N)C(=O)O
- solubility [1]: > 12000 µg/mL

SMILES: c1cnc2cc[nH]c2c1
- pKa [2]: 6.94

SMILES: c1cc2cc[nH]c2cn1
- pKa [2]: 7.93

SMILES: c1cc2[nH]ccc2cn1
- pKa [2]: 8.26

SMILES: Cc1csc(-c2ccc(F)c3c(C(=O)C(=O)N4CCN(C(=O)c5ccccc5)CC4)c[nH]c23)n1
- EC50 [3]: 0.0058 nM

SMILES: Cc1ncn(-c2ncc(F)c3c(C(=O)C(=O)N4CC5CN(C(=O)c6ccccc6)CC5C4)c[nH]c23)n1 (stereo not given)
- IC50 [4]: 0.8 nM

SMILES: O=C(C(=O)N1CCN(C(=O)c2ccccc2)CC1)c1c[nH]c2c(-c3nccs3)ccc(F)c12
- EC50 [3]: 0.057 nM

SMILES: COc1ccnc2[nH]cc(C(=O)C(=O)N3CCN(C(=O)c4ccccc4)C[C@@H]3C)c12
- EC50 [5]: 2.68 nM
- EC50 [6]: 26.5 nM
- bioavailability [7]: 19%
- EC50 [8]: 2.94 nM
- bioavailability [9]: 24%
- EC50 [10]: 3.46 nM
- EC50 [11]: 0.85 nM
- EC50 [12]: 15.5 nM
- solubility [13]: 170 µg/mL (≈ 418 µM)
- EC50 [14]: 1.47 nM
- bioavailability [15]: 77%

SMILES: COc1ncc(OC)c2c(C(=O)C(=O)N3CCN(C(=O)c4ccccc4)CC3)c[nH]c12
- bioavailability [7]: 90%
- bioavailability [9]: 60%
